Measurements published in PubChem BioAssay (NCI).
Values joined by “and” are separate entries in the source; they are usually repeats but may differ in a detail not shown here. Equal values may be shown once.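 Grown in 96-well plates, cells were treated for 48 hours with each compound at five concentrations. Insufficient inhibition: endpoint recorded as highest concentration tested. At the GI50, growth is halved. TGI: total growth inhibition.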

How the values were obtained:
Test in all cases: NCI-60 cell line screen, 48 h; in the data active = GI50 below about 0.43 µM; inactive = the rest
[1] = tested on: U251 CNS
[2] = tested on: BT-549 breast
[3] = tested on: M14 melanoma
[4] = tested on: UACC-257 melanoma
[5] = tested on: MDA-MB-231 breast
[6] = tested on: CAKI-1 renal
[7] = tested on: OVCAR-3 ovarian
[8] = tested on: SK-OV-3 ovarian
[9] = tested on: MCF7 breast
[10] = tested on: HT29 colon
[11] = tested on: PC-3 prostate
[12] = tested on: RXF 393 renal
[13] = tested on: SK-MEL-5 melanoma
[14] = tested on: HS 578T breast
[15] = tested on: CCRF-CEM leukemia
[16] = tested on: COLO 205 colon
[17] = tested on: KM12 colon
[18] = tested on: RPMI-8226 leukemia
[19] = tested on: UACC-62 melanoma
[20] = tested on: HL-60(TB) leukemia
[21] = tested on: SNB-75 CNS
[22] = tested on: NCI-H460 lung
[23] = tested on: DU-145 prostate
[24] = tested on: A549 NSCLC
[25] = tested on: HOP-92 NSCLC
[26] = tested on: SK-MEL-28 melanoma
[27] = tested on: SN12C renal
[28] = tested on: IGROV1 ovarian
[29] = tested on: TK-10 renal
[30] = tested on: EKVX NSCLC
[31] = tested on: SK-MEL-2 melanoma
[32] = tested on: T-47D breast
[33] = tested on: A498 renal
[34] = tested on: OVCAR-8 ovarian
[35] = tested on: SR leukemia
[36] = tested on: MDA-MB-435
[37] = tested on: SNB-19 CNS
[38] = tested on: ACHN renal
[39] = tested on: HCT-15 colon
[40] = tested on: SW-620 colon
[41] = tested on: NCI-H23 lung
[42] = tested on: HOP-62 NSCLC
[43] = tested on: UO-31 renal
[44] = tested on: OVCAR-4 ovarian
[45] = tested on: NCI-H226 lung
[46] = tested on: HCT-116 colon
[47] = tested on: 786-0 renal
[48] = tested on: SF-268 CNS
[49] = tested on: HCC-2998 colon
[50] = tested on: LOX IMVI melanoma
[51] = tested on: MALME-3M melanoma
[52] = tested on: MOLT-4 leukemia
[53] = tested on: OVCAR-5 ovarian
[54] = tested on: SF-539 CNS
[55] = tested on: K-562 leukemia
[56] = tested on: SF-295 CNS
[57] = tested on: NCI-H522 lung
[58] = tested on: NCI/ADR-RES ovarian

COc1ccc(/C=C/C(=O)Nc2cc(/C=C\c3cc(OC)c(OC)c(OC)c3)cc(OC)c2OC)cc1OC
> 100 µM: TGI [1] | TGI [3] | TGI [4] | TGI [5] | TGI [6] | TGI [7] | TGI [9] | TGI [10] | TGI [11] | TGI [14] | TGI [15] | TGI [17] | TGI [18] | TGI [19] | TGI [22] | TGI [23] | TGI [24] | TGI [25] | TGI [26] | TGI [27] | TGI [28] | TGI [29] | TGI [30] | TGI [33] | TGI [34] | TGI [35] | TGI [37] | TGI [38] | TGI [39] | TGI [40] | TGI [41] | TGI [42] | TGI [43] | TGI [44] | TGI [45] | TGI [46] | TGI [47] | TGI [48] | TGI [49] | TGI [50] | TGI [51] | TGI [52] | TGI [53] | TGI [54]
8.73 µM: TGI [32]
6.55 µM: TGI [16]
6.42 µM: TGI [12]
7.46 µM: TGI [21]
57.8 µM: TGI [2]
7.66 µM: TGI [20]
8.48 µM: TGI [8]
4.52 µM: TGI [36]
9.4 µM: TGI [31]
3.65 µM: TGI [13]
inactive: GI50 [1] 4.22 µM | GI50 [2] 3.36 µM | GI50 [3] 3.01 µM | GI50 [4] 6.5 µM | GI50 [5] 6.65 µM | GI50 [6] 2.16 µM | GI50 [7] 5.53 µM | GI50 [8] 3.02 µM | GI50 [9] 2.44 µM | GI50 [10] 3.64 µM | GI50 [11] 3.06 µM | GI50 [12] 2.23 µM | GI50 [13] 1.61 µM | GI50 [14] 8.92 µM | GI50 [15] 2.48 µM | GI50 [16] 2.65 µM | GI50 [17] 4.22 µM | GI50 [18] 2.14 µM | GI50 [19] 2.21 µM | GI50 [20] 2.3 µM | GI50 [21] 1.68 µM | GI50 [22] 3.37 µM | GI50 [23] 26.6 µM | GI50 [24] 3.69 µM | GI50 [25] > 100 µM | GI50 [26] 2.87 µM | GI50 [27] 3.96 µM | GI50 [28] 7.48 µM | GI50 [29] 5.13 µM | GI50 [30] 3.47 µM | GI50 [31] 3.05 µM | GI50 [32] 2.21 µM | GI50 [33] 4.92 µM | GI50 [34] 3.44 µM | GI50 [35] 0.668 µM | GI50 [36] 1.29 µM | GI50 [37] 4.3 µM | GI50 [38] 4.68 µM | GI50 [39] 3.58 µM | GI50 [40] 5.05 µM | GI50 [41] 3.48 µM | GI50 [42] 3.15 µM | GI50 [43] 2.31 µM | GI50 [44] 2.49 µM | GI50 [45] 3.62 µM | GI50 [46] 3.71 µM | GI50 [47] 2.98 µM | GI50 [48] 9.1 µM | GI50 [49] 6.95 µM | GI50 [50] 4 µM | GI50 [51] 2.8 µM | GI50 [52] 3.35 µM | GI50 [53] 6.49 µM | GI50 [54] 3.7 µM

C#CC(F)(F)[C@]1(O)CC[C@H]2[C@@H]3CCC4=CC(=O)CCC4=C3[C@@H](c3ccc(C4CC4)cc3)C[C@@]21C
< 0.01 µM: TGI [43] | TGI [50]
2.94 µM and 3.57 µM: TGI [2]
7.74 µM and 6.01 µM: TGI [31]
71.8 µM and > 100 µM: TGI [4]
0.205 µM and 1.32 µM: GI50 [14]
0.043 µM and < 0.0139 µM: TGI [15]
< 0.0106 µM: TGI [47]
17.9 µM and 5.96 µM: TGI [26]
0.234 µM and 2.2 µM: TGI [1]
0.0458 µM and 0.0317 µM: TGI [54]
0.0216 µM and < 0.01 µM: TGI [20]
3.91 µM and 7.22 µM: TGI [24]
1.93 µM and 1.74 µM: TGI [33]
0.0374 µM and < 0.0253 µM: TGI [25]
8.69 µM and 10.5 µM: TGI [27]
0.183 µM and 0.322 µM: TGI [48]
2.63 µM and 7.34 µM: TGI [14]
5.44 µM and 1.72 µM: TGI [42]
6.55 µM and 15.4 µM: TGI [23]
13.2 µM and 19 µM: TGI [46]
2.27 µM and 5.79 µM: TGI [53]
29.9 µM and > 65.6 µM: TGI [49]
0.0946 µM and < 0.028 µM: TGI [51]
72.9 µM and 11.5 µM: TGI [45]
9.9 µM and 9.67 µM: TGI [22]
0.437 µM: TGI [21]
20.9 µM and 8.33 µM: TGI [29]
0.0174 µM and < 0.01 µM: TGI [57]
> 100 µM: TGI [9] | TGI [39] | TGI [44]
7.44 µM and 12.4 µM: TGI [40]
2.92 µM and 18.8 µM: TGI [3]
0.0821 µM and < 0.01 µM: TGI [56]
23.9 µM and 10.3 µM: TGI [36]
11.2 µM and 3.59 µM: TGI [16]
inactive: GI50 [2] 1.16 µM and 1.28 µM | GI50 [3] 0.844 µM and 2.78 µM | GI50 [4] 7.72 µM and 6.45 µM | GI50 [9] 1.56 µM and 1.16 µM | GI50 [13] 4.05 µM and 3.05 µM | GI50 [16] 1.79 µM and 1.22 µM | GI50 [19] 0.762 µM and 1.42 µM | GI50 [55] 0.815 µM and 2.21 µM | GI50 [22] 2.38 µM and 2.28 µM | GI50 [23] 0.814 µM and 2.13 µM | GI50 [26] 5.33 µM and 2.31 µM | GI50 [27] 0.933 µM and 2.45 µM | GI50 [29] 4.55 µM and 2.24 µM | GI50 [31] 2.65 µM and 2.22 µM | GI50 [33] 0.495 µM and 0.593 µM | GI50 [36] 4.59 µM and 2.25 µM | GI50 [37] 1.44 µM and 3.91 µM | GI50 [39] 1.55 µM and 1.81 µM | GI50 [40] 1.25 µM and 2.36 µM | GI50 [44] 1.01 µM | GI50 [45] 7.79 µM and 3.15 µM | GI50 [46] 3.19 µM and 2.9 µM | GI50 [49] 5.6 µM and 3.72 µM | GI50 [52] 1.16 µM and 1.62 µM
0.268 µM and < 0.041 µM: TGI [41]
2.36 µM and 4.22 µM: TGI [19]
0.171 µM and 0.184 µM: TGI [10]
0.4 µM and 0.47 µM: GI50 [24]
0.633 µM and 0.0745 µM: TGI [6]
0.313 µM and 2.74 µM: TGI [11]
< 0.0155 µM: TGI [28]
0.271 µM and 1.28 µM: GI50 [53]
2.92 µM and 7 µM: TGI [12]
active: GI50 [1] 0.048 µM and 0.395 µM | GI50 [6] 0.103 µM and < 0.0171 µM | GI50 [7] 0.0159 µM and 0.0245 µM | GI50 [8] 0.162 µM and 0.0695 µM | GI50 [10] 0.0428 µM and < 0.02 µM | GI50 [11] 0.0441 µM and 0.414 µM | GI50 [15] 0.017 µM and < 0.01 µM | GI50 [17] 0.0214 µM and < 0.0177 µM | GI50 [18] 0.139 µM and 0.125 µM | GI50 [56] 0.0319 µM and < 0.01 µM | GI50 [20] < 0.01 µM | GI50 [21] 0.147 µM | GI50 [25] 0.0167 µM and < 0.0161 µM | GI50 [28] < 0.0114 µM | GI50 [32] < 0.01 µM | GI50 [41] 0.0242 µM and < 0.0151 µM | GI50 [42] 0.367 µM and 0.201 µM | GI50 [43] < 0.01 µM | GI50 [47] < 0.01 µM | GI50 [57] < 0.01 µM | GI50 [48] 0.0541 µM and 0.0971 µM | GI50 [50] < 0.01 µM | GI50 [51] 0.0436 µM and < 0.0151 µM | GI50 [58] 0.083 µM and 0.164 µM | GI50 [54] 0.0207 µM and < 0.0155 µM
11.7 µM and > 100 µM: TGI [55]
0.0326 µM and 0.169 µM: TGI [7]
0.312 µM and 0.215 µM: TGI [8]
2.82 µM and 5.55 µM: TGI [58]
59 µM and 8.4 µM: TGI [32]
1 µM and 0.915 µM: TGI [18]
10.7 µM and 8.41 µM: TGI [13]
4 µM and 5 µM: TGI [52]

O=c1cc(-c2ccccc2)[nH]c2ccc(N3CCCC3)cc12
2.16 µM: TGI [13]
> 57.9 µM: TGI [34]
> 100 µM: TGI [2] | TGI [4] | TGI [5] | TGI [6] | TGI [8] | TGI [9] | TGI [11] | TGI [12] | TGI [14] | TGI [18] | TGI [55] | TGI [21] | TGI [23] | TGI [25] | TGI [26] | TGI [27] | TGI [28] | TGI [29] | TGI [30] | TGI [31] | TGI [32] | TGI [33] | TGI [37] | TGI [38] | TGI [39] | TGI [40] | TGI [43] | TGI [48] | TGI [50] | TGI [51] | TGI [58] | TGI [52] | TGI [53]
85.2 µM: TGI [19]
0.198 µM: TGI [17]
0.0201 µM: TGI [56]
0.0703 µM: TGI [54]
> 74.2 µM: TGI [42]
> 46.9 µM: TGI [1]
> 34.8 µM: TGI [46]
0.0761 µM: TGI [45]
> 52.4 µM: TGI [47]
< 0.0114 µM: TGI [36]
< 0.0347 µM: TGI [20]
26.1 µM: TGI [7]
